“And” between values parts separate entries of the source, which are not always exact repeats. Equal values may be shown once. Toxic doses and inconclusive results are not listed. Rule as the data show it: active = T/C of 150% or more; inactive = T/C below 125%.
Tested on: L1210 leukemia ip in BDF1 mice, survival T/C
Assay: NCI In Vivo Anticancer Drug Screen. Data for tumor model L1210 Leukemia (intraperitoneal) in B6D2F1 (BDF1) mice
Settings: endpoint: mean survival time, higher = longer survival
How it was run: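 Value reflects the ratio of survival in compound-treated mice to survival in vehicle-treated controls, with both groups carrying the same transplanted tumor.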

Measured: T/C

O=C(Nc1ccc(C2=NCCN2)cc1)c1ccc(C(=O)Nc2ccc(C3=NCCN3)cc2)c(Cl)c1
active: dose: 8.0 mg/kg/injection, schedule: Q01DX Z (ip), vehicle: saline 188 % of control | dose: 11.0 mg/kg/injection, schedule: Q02DX010 (ip), vehicle: carboxymethylcellulose (CMC) 181 % of control | dose: 15.0 mg/kg/injection, schedule: Q01DX010 (ip), vehicle: other 166 % of control | dose: 15.0 mg/kg/injection, schedule: Q01DX015 (ip), vehicle: carboxymethylcellulose (CMC) 169 % of control and 171 % of control | dose: 16.0 mg/kg/injection, schedule: Q01DX010 (ip), vehicle: water 156 % of control | dose: 16.0 mg/kg/injection, schedule: Q01DX Z (ip), vehicle: saline 173 % of control | dose: 22.5 mg/kg/injection, schedule: Q01DX010 (ip), vehicle: other 178 % of control | dose: 24.0 mg/kg/injection, schedule: Q02DX010 (ip), vehicle: carboxymethylcellulose (CMC) 168 % of control | dose: 26.0 mg/kg/injection, schedule: Q02DX008 (ip), vehicle: carboxymethylcellulose (CMC) 168 % of control | dose: 26.0 mg/kg/injection, schedule: Q02DX010 (ip), vehicle: carboxymethylcellulose (CMC) 169 % of control and 182 % of control | dose: 32.0 mg/kg/injection, schedule: Q01DX Z (sc), vehicle: carboxymethylcellulose (CMC) 185 % of control | dose: 33.7 mg/kg/injection, schedule: Q01DX010 (ip), vehicle: other 167 % of control | dose: 39.0 mg/kg/injection, schedule: Q02DX008 (ip), vehicle: carboxymethylcellulose (CMC) 184 % of control and 192 % of control | dose: 39.0 mg/kg/injection, schedule: Q02DX010 (ip), vehicle: other 167 % of control | dose: 48.0 mg/kg/injection, schedule: Q01DX010 (ip), vehicle: water 157 % of control | dose: 50.0 mg/kg/injection, schedule: Q02DX004 (im), vehicle: olive oil, sesame oil, peanut oil 156 % of control | dose: 53.6 mg/kg/injection, schedule: Q## X032 (ip), vehicle: carboxymethylcellulose (CMC) 162 % of control | dose: 54.0 mg/kg/injection, schedule: Q02DX010 (ip), vehicle: carboxymethylcellulose (CMC) 181 % of control | dose: 54.0 mg/kg/injection, schedule: Q02DX010 (ip), vehicle: other 157 % of control | dose: 54.0 mg/kg/injection, schedule: Q## X032 (ip), vehicle: carboxymethylcellulose (CMC) 153 % of control | dose: 58.5 mg/kg/injection, schedule: Q02DX008 (ip), vehicle: carboxymethylcellulose (CMC) 166 % of control | dose: 58.7 mg/kg/injection, schedule: Q02DX010 (ip), vehicle: carboxymethylcellulose (CMC) 162 % of control | dose: 67.0 mg/kg/injection, schedule: Q## X004 (ip), vehicle: carboxymethylcellulose (CMC) 157 % of control and 161 % of control | dose: 80.0 mg/kg/injection, schedule: Q## X032 (ip), vehicle: carboxymethylcellulose (CMC) 163 % of control and 178 % of control and 188 % of control | dose: 96.0 mg/kg/injection, schedule: Q01DX001 (ip), vehicle: carboxymethylcellulose (CMC) 156 % of control | dose: 96.0 mg/kg/injection, schedule: Q01DX001 (ip), vehicle: other 162 % of control | dose: 120.0 mg/kg/injection, schedule: Q## X032 (ip), vehicle: carboxymethylcellulose (CMC) 180 % of control and 181 % of control
inactive: dose: 1.8 mg/kg/injection, schedule: Q01DX009 (ip), vehicle: Klucel (hydroxypropylcellulose) (HPC) 100 % of control and 105 % of control | dose: 2.0 mg/kg/injection, schedule: Q01DX010 (ip), vehicle: other 94 % of control and 101 % of control | dose: 2.0 mg/kg/injection, schedule: Q01DX Z (ip), vehicle: saline 103 % of control | dose: 2.0 mg/kg/injection, schedule: Q01DX Z (sc), vehicle: carboxymethylcellulose (CMC) 110 % of control | dose: 2.5 mg/kg/injection, schedule: Q04DX002 (ip), vehicle: Klucel (hydroxypropylcellulose) (HPC) 95 % of control | dose: 3.0 mg/kg/injection, schedule: Q03DX Z (ip), vehicle: saline 114 % of control | dose: 3.5 mg/kg/injection, schedule: Q01DX009 (ip), vehicle: Klucel (hydroxypropylcellulose) (HPC) 107 % of control and 115 % of control | dose: 4.0 mg/kg/injection, schedule: Q01DX010 (ip), vehicle: other 107 % of control and 117 % of control | dose: 4.0 mg/kg/injection, schedule: Q01DX Z (sc), vehicle: carboxymethylcellulose (CMC) 110 % of control | dose: 5.0 mg/kg/injection, schedule: Q04DX002 (ip), vehicle: Klucel (hydroxypropylcellulose) (HPC) 95 % of control | dose: 6.0 mg/kg/injection, schedule: Q03DX Z (ip), vehicle: saline 118 % of control | dose: 6.7 mg/kg/injection, schedule: Q01DX010 (ip), vehicle: other 124 % of control | dose: 6.7 mg/kg/injection, schedule: Q01DX015 (ip), vehicle: carboxymethylcellulose (CMC) 116 % of control | dose: 7.8 mg/kg/injection, schedule: Q02DX010 (ip), vehicle: carboxymethylcellulose (CMC) 117 % of control | dose: 10.0 mg/kg/injection, schedule: Q01DX015 (ip), vehicle: carboxymethylcellulose (CMC) 119 % of control | dose: 12.5 mg/kg/injection, schedule: Q02DX004 (im), vehicle: olive oil, sesame oil, peanut oil 116 % of control and 119 % of control | dose: 13.0 mg/kg/injection, schedule: Q## X004 (ip), vehicle: carboxymethylcellulose (CMC) 105 % of control and 106 % of control | dose: 17.4 mg/kg/injection, schedule: Q02DX008 (ip), vehicle: carboxymethylcellulose (CMC) 121 % of control | dose: 20.0 mg/kg/injection, schedule: Q01DX001 (ip), vehicle: saline 114 % of control | dose: 20.0 mg/kg/injection, schedule: Q## X004 (ip), vehicle: carboxymethylcellulose (CMC) 103 % of control and 114 % of control | dose: 25.0 mg/kg/injection, schedule: Q01DX001 (im), vehicle: steriod suspending solution 103 % of control | dose: 28.0 mg/kg/injection, schedule: Q07DX Z (ip), vehicle: saline 121 % of control | dose: 29.0 mg/kg/injection, schedule: Q01DX001 (ip), vehicle: carboxymethylcellulose (CMC) 122 % of control | dose: 29.0 mg/kg/injection, schedule: Q01DX001 (ip), vehicle: other 109 % of control | dose: 30.0 mg/kg/injection, schedule: Q01DX001 (ip), vehicle: carboxymethylcellulose (CMC) 116 % of control and 118 % of control | dose: 30.0 mg/kg/injection, schedule: Q## X004 (ip), vehicle: carboxymethylcellulose (CMC) 113 % of control and 115 % of control | dose: 39.0 mg/kg/injection, schedule: Q01DX015 (ip), vehicle: carboxymethylcellulose (CMC) 119 % of control | dose: 40.0 mg/kg/injection, schedule: Q01DX001 (ip), vehicle: saline 106 % of control | dose: 42.0 mg/kg/injection, schedule: Q01DX001 (ip), vehicle: carboxymethylcellulose (CMC) 122 % of control | dose: 42.0 mg/kg/injection, schedule: Q01DX001 (ip), vehicle: other 117 % of control | dose: 44.0 mg/kg/injection, schedule: Q01DX001 (ip), vehicle: carboxymethylcellulose (CMC) 113 % of control | dose: 48.0 mg/kg/injection, schedule: Q01DX001 (ip), vehicle: carboxymethylcellulose (CMC) 113 % of control | dose: 48.4 mg/kg/injection, schedule: Q01DX001 (ip), vehicle: carboxymethylcellulose (CMC) 104 % of control | dose: 50.0 mg/kg/injection, schedule: Q01DX010 (sc), vehicle: olive oil, sesame oil, peanut oil 123 % of control | dose: 50.0 mg/kg/injection, schedule: Q01DX015 (ip), vehicle: carboxymethylcellulose (CMC) 100 % of control and 124 % of control | dose: 56.0 mg/kg/injection, schedule: Q01DX009 (ip), vehicle: Klucel (hydroxypropylcellulose) (HPC) 93 % of control | dose: 56.0 mg/kg/injection, schedule: Q07DX Z (ip), vehicle: saline 123 % of control | dose: 62.5 mg/kg/injection, schedule: Q01DX010 (oral), vehicle: other 113 % of control | dose: 74.0 mg/kg/injection, schedule: Q01DX001 (ip), vehicle: carboxymethylcellulose (CMC) 120 % of control | dose: 80.0 mg/kg/injection, schedule: Q01DX001 (ip), vehicle: saline 119 % of control | dose: 81.0 mg/kg/injection, schedule: Q02DX010 (ip), vehicle: carboxymethylcellulose (CMC) 106 % of control | dose: 100.0 mg/kg/injection, schedule: Q01DX010 (sc), vehicle: olive oil, sesame oil, peanut oil 93 % of control | dose: 112.0 mg/kg/injection, schedule: Q07DX Z (ip), vehicle: saline 121 % of control | dose: 125.0 mg/kg/injection, schedule: Q01DX010 (oral), vehicle: other 107 % of control | dose: 180.0 mg/kg/injection, schedule: Q## X032 (ip), vehicle: carboxymethylcellulose (CMC) 94 % of control | dose: 250.0 mg/kg/injection, schedule: Q01DX010 (oral), vehicle: other 111 % of control

CN1C(=O)NC(=O)C1c1ccccc1 (centres undefined)
inactive: dose: 100.0 mg/kg/injection, schedule: Q04DX002 (ip), vehicle: saline 117 % of control | dose: 200.0 mg/kg/injection, schedule: Q04DX002 (ip), vehicle: saline 106 % of control | dose: 400.0 mg/kg/injection, schedule: Q04DX002 (ip), vehicle: saline 106 % of control

CN(C)c1ccc(Cc2ccc(N(C)C)cc2)cc1
inactive: dose: 100.0 mg/kg/injection, schedule: Q01DX009 (ip), vehicle: saline with Tween-80 96 % of control | dose: 200.0 mg/kg/injection, schedule: Q01DX009 (ip), vehicle: saline with Tween-80 94 % of control | dose: 400.0 mg/kg/injection, schedule: Q01DX009 (ip), vehicle: saline with Tween-80 86 % of control

— PubChem BioAssay AID248 (DTP/NCI, 2004)
